According to patent US9545445B2, “Therapeutic drug for hypertension or prehypertension” (Teijin Pharma Limited, priority 2009, dated 2017):

Tested on: SHRs (Spontaneously Hypertensive Rats)
Assay: Systolic blood pressure of spontaneously hypertensive rats by Tail-Cuff method after administration in drinking water
Assay type: in vivo, rat
Description: In this case, losartan (an angiotensin-receptor antagonist), enalapril (an angiotensin-converting enzyme inhibitor), amlodipine (a calcium channel blocker), and diltiazem (a calcium channel blocker) were used as representative examples of the antihypertensive agent (b). Twelve-week-old male SHRs (Spontaneously Hypertensive Rats) were used for experiment after subjecting them to quarantine for 1 week or more. At 15 or 16 weeks old, the SHRs were trained for blood pressure measurement with a Tail-Cuff method sphygmomanometer (BP-2000, Visitech systems, Napa Place, N.C., USA) for 1 to 2 weeks. After completing the training, they underwent blood pressure measurement at 17 to 18 weeks old. The animals were divided into 4 groups (10 for each) by taking care not to cause a bias in the systolic blood pressure, and the drug administration was started. Tap water was administered to a first group as a control group. A solution of each test material dissolved in tap water was administered to second to fourth groups. That is, febuxostat was administered to the second group, each antihypertensive agent of losartan, enalapril, amlodipine or diltiazem to the third group, and the mixture of febuxostat and the antihypertensive agents administered to the third group as combined administration to the fourth group. The dose of each agent was calculated from the concentration in the solution, the amount of drinking water, and the weight of the rats. After administration was carried out for 2 to 6 weeks, the value of their systolic blood pressure were measured by Tail-Cuff method.

[1] = male SHR, 14th day after administration, each agent 3 mg/kg/day in tap water, alone or combined, Table 1 study (tap water group 233 ± 4)
[2] = male SHR, 42nd day after administration, each agent 3 mg/kg/day in tap water, alone or combined, Table 2 study (tap water group 226 ± 4)
[3] = male SHR, before administration (baseline of the group), Table 1 study, each agent 3 mg/kg/day
[4] = male SHR, before administration (baseline of the group), Table 2 study, each agent 3 mg/kg/day
[5] = male SHR, before administration (baseline of the group), Table 3 study, each agent 3 mg/kg/day

Cc1nc(-c2ccc(OCC(C)C)c(C#N)c2)sc1C(=O)O [febuxostat, 2-(3-cyano-4-isobutyloxyphenyl)-4-methyl-5-thiazolecarboxylic acid]
systolic blood pressure (mean value±standard error) [1]: 219 ± 4 mmHg | systolic blood pressure (mean value±standard error) (male SHR, 14th day after administration, each agent 3 mg/kg/day in tap water, alone or combined, Table 3 study (tap water group 229 ± 3)): 215 ± 4 mmHg | systolic blood pressure (mean value±standard error) [2]: 213 ± 5 mmHg | systolic blood pressure (mean value±standard error) (male SHR, 42nd day after administration, febuxostat 3 mg/kg/day in tap water, Table 4 study (tap water group 233 ± 3)): 227 ± 4 mmHg | antihypertensive action (result in words) (male SHR, administration for 2 to 6 weeks in drinking water): antihypertensive action | systolic blood pressure (mean value±standard error) [3]: 230 ± 4 mmHg | systolic blood pressure (mean value±standard error) [4]: 230 ± 3 mmHg | systolic blood pressure (mean value±standard error) [5]: 228 ± 4 mmHg | systolic blood pressure (mean value±standard error) (male SHR, before administration (baseline of the group), Table 4 study, febuxostat 3 mg/kg/day): 230 ± 5 mmHg

CCOC(=O)[C@H](CCc1ccccc1)N[C@@H](C)C(=O)N1CCC[C@H]1C(=O)O [enalapril]
systolic blood pressure (mean value±standard error) [2]: 220 ± 5 mmHg | systolic blood pressure (mean value±standard error) [4]: 232 ± 5 mmHg

CCCCc1nc(Cl)c(CO)n1Cc1ccc(-c2ccccc2-c2nn[nH]n2)cc1 [losartan]
systolic blood pressure (mean value±standard error) [1]: 215 ± 2 mmHg | systolic blood pressure (mean value±standard error) [3]: 232 ± 4 mmHg

COc1ccc([C@@H]2Sc3ccccc3N(CCN(C)C)C(=O)[C@@H]2OC(C)=O)cc1 [diltiazem]
systolic blood pressure (mean value±standard error) (male SHR, 42nd day after administration, diltiazem 100 mg/kg/day in tap water, Table 4 study (tap water group 233 ± 3)): 231 ± 4 mmHg | systolic blood pressure (mean value±standard error) (male SHR, before administration (baseline of the group), Table 4 study, diltiazem 100 mg/kg/day): 229 ± 4 mmHg

CCOC(=O)C1=C(COCCN)NC(C)=C(C(=O)OC)C1c1ccccc1Cl (centres unmarked) [amlodipine]
systolic blood pressure (mean value±standard error) [5]: 228 ± 3 mmHg | systolic blood pressure (mean value±standard error) (rat, in vivo): 219 ± 3 mmHg
